Calls of active or inactive are those of the source.
Key:
[1] = molecular target: T1, Protein skinhead-1 (Caenorhabditis elegans, UniProt P34707); format: functional
T1 sequence (P34707 whole entry): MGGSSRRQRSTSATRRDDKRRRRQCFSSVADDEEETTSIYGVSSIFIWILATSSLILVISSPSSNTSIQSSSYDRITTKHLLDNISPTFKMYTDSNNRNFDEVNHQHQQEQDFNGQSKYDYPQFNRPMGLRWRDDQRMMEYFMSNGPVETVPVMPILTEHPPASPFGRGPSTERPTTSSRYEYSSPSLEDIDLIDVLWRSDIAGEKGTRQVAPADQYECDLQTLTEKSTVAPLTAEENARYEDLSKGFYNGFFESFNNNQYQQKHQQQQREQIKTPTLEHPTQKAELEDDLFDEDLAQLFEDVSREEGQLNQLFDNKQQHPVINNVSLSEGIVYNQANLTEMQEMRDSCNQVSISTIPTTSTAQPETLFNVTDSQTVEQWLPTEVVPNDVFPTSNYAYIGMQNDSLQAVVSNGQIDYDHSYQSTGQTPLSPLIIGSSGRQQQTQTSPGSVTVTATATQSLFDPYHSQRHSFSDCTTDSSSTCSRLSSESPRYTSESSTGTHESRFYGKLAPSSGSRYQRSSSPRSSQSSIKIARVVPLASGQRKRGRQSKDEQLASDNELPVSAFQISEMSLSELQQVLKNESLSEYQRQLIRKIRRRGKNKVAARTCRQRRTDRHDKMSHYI

[2] = viability of uninfected HEp-2 cells – cell-based, HTS, cytotoxicity control for RSV inhibitor project, dose response (AID 2410); format: functional; conditions: human respiratory syncytial virus
[3] = molecular target: T2, Heat shock factor protein 1 (Mus musculus, UniProt P38532); test: decrease of HSF1-responsive luciferase luminescence – cell-based, NIH3T3, dose retest, confirmation (AID 2382); format: functional;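 also: NIH3T3 fibroblasts with HSF1-driven luciferase reporter stressed by proteasome inhibitor MG132; luminescence from HSF1-driven luciferase expression after 8 hours of MG132 stress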
T2 sequence (P38532 whole entry): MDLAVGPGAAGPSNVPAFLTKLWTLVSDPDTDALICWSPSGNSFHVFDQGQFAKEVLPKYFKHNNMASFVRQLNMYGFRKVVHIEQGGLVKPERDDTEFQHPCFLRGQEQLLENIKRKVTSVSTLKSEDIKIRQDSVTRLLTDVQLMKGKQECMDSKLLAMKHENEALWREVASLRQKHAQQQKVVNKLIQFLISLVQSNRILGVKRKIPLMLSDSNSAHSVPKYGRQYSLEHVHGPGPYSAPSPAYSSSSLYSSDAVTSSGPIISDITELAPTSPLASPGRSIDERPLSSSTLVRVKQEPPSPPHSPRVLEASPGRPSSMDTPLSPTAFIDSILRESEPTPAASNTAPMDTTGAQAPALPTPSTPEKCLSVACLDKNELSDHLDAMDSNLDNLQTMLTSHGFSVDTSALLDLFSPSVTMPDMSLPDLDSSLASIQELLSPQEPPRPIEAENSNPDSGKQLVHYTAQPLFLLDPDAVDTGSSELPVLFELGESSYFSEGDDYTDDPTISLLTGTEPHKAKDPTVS

[4] = molecular target: T3, Cytochrome P450 1A2 (Homo sapiens, UniProt P05177);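 also: PubChem cytochrome P450 panel assay, CYP1A2 panel member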
T3 sequence (P05177 whole entry): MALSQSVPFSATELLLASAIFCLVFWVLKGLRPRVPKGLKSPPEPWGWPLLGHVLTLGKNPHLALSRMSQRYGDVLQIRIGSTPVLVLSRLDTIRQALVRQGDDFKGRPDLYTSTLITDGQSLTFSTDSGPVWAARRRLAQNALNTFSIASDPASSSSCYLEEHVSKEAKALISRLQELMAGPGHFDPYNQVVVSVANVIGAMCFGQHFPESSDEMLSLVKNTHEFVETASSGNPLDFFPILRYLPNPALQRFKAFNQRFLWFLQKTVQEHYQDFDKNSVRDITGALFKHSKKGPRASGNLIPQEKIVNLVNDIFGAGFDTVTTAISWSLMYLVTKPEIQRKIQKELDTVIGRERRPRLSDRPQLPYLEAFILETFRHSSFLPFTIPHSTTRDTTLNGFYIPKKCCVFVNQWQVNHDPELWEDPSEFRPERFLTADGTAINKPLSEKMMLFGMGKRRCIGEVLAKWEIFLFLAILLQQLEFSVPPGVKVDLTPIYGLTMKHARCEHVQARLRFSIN

[5] = molecular target: Cytochrome P450 2C19 (Homo sapiens, UniProt P33261); test: Cytochrome panel assay with activity outcomes. Panel member name: p450-cyp2c19 Compounds with AC50 equal or less than 10 uM are considered active; format: functional; conditions: read-out: AC50
Chain of Cytochrome P450 2C19 (P33261 whole entry): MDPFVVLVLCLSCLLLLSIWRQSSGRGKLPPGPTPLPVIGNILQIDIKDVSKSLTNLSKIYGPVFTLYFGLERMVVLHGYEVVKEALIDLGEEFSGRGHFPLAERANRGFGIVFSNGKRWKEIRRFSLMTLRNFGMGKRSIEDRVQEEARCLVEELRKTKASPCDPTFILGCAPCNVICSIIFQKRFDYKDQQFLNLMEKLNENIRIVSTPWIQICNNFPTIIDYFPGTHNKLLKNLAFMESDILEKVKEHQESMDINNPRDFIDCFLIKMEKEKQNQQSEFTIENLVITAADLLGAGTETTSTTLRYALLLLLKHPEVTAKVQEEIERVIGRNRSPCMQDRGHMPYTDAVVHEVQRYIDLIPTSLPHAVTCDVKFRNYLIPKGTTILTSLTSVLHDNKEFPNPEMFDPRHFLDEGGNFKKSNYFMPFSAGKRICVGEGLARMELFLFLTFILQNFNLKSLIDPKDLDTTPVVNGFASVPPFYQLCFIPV

[6] = molecular target: Cytochrome P450 2C9 (Homo sapiens, UniProt P11712)
Chain of Cytochrome P450 2C9 (P11712 whole entry): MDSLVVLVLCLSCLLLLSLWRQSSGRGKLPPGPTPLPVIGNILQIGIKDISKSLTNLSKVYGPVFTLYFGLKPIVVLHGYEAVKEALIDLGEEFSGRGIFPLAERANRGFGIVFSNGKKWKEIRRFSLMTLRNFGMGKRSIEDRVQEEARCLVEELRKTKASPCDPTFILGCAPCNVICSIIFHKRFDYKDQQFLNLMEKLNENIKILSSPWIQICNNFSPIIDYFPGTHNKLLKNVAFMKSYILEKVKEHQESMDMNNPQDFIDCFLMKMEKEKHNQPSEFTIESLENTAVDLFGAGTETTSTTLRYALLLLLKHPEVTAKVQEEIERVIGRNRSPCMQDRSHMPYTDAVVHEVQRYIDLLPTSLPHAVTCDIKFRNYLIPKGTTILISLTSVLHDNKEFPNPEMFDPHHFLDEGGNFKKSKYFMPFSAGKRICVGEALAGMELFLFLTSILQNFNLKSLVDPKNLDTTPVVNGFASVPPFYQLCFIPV

[7] = molecular target: T2, Heat shock factor protein 1; test: enhancement of HSF1-driven luciferase signal – cell-based, NIH3T3, luminescence, dose retest, confirmation (AID 435004); format: functional;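 also: stress induced by proteasome inhibitor MG132 added 30 min after compound; luciferase reporter driven by HSF1 response element in NIH3T3 cells; actives raise luminescence as potentiators of the MG132 stress response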
[8] = NIH3T3 cell viability loss – ATP luminescence, mouse fibroblasts, counter-screen, dose response (AID 2010); format: functional, cell-based;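 also: cells exposed to compound for about 90 hours before reading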
[9] = Trypanosoma cruzi growth suppression in host cells – NIH3T3 host cells, beta-gal luminescence, confirmation (AID 2044); format: functional, cell-based;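 also: intracellular parasites grown in NIH/3T3 mouse fibroblasts as host cells; luminescent beta-galactosidase reporter signal from transgenic T. cruzi replicating inside host cells; inhibitors lower the luminescence signal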
[10] = molecular target: Cytochrome P450 3A4 (Homo sapiens, UniProt P08684);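 also: CYP3A4 tested as one member of a cytochrome P450 panel screen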
Chain of Cytochrome P450 3A4 (P08684 whole entry): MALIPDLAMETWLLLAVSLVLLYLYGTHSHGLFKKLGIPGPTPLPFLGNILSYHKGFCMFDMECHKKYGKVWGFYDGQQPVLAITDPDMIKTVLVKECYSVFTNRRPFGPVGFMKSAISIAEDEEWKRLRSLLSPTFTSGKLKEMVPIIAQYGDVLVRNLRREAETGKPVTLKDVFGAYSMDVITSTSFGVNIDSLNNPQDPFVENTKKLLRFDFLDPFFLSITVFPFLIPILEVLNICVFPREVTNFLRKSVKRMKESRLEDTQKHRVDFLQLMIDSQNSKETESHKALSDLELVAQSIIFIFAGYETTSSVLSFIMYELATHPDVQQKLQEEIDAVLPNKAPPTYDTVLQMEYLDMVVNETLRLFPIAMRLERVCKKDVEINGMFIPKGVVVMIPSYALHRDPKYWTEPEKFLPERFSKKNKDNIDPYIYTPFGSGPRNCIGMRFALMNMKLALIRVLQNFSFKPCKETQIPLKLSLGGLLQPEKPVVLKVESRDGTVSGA

[11] = Luminescence Cell-Based Dose Retest to Confirm Inhibitors of Cancer Stem Cells. [Related pubchem assays (depositor defined):AID2717, AID2721]; format: functional, Homo sapiens; conditions: Homo sapiens

With c1ccc2sc(-c3ccncc3)nc2c1 the IC50 [1] was 54.5 µM (inactive) and the CC50 [2] was 25.5 µM (active).
With CCOC(=O)N1CCN(C(=O)C2CCN(Cc3ccc(OC)cc3OC)CC2)CC1 the EC50 [3] was > 195 µM (not active).
With Cc1nnc(SCCn2c(N3CC(C)CC(C)C3)nc3c2c(=O)n(C)c(=O)n3C)s1 (stereo not drawn) the IC50 [1] was > 100 µM (inactive).
With O[C@H](CN1CCN(c2cccc(Cl)c2)CC1)C(c1ccccc1)c1ccccc1 the AC50 [4] was 31.6 µM (inconclusive).
For OC(CNC1CCCC1)COc1ccc(-c2ccccc2)cc1 (stereo not drawn), the IC50 [1] was 45.6 µM (active).
For CCCn1nc2cc(C(=O)NCc3ccc(C)cc3)ccc2c1OC, the AC50 [5] was 22.4 µM (inconclusive) and the AC50 [6] was 20 µM (inconclusive).
With CCc1n[nH]c2c1C1(CCN(C(=O)OCc3ccccc3)CC1)C(C#N)=C(N)O2 the EC50 [7] was 33.9 µM (active).
In the case of CSCC[C@H](NC(=O)N1CCn2c1nc1ccccc12)C(=O)NCc1ccc(F)cc1, the EC50 [7] is reported as > 260 µM (inactive).
With COc1cc(N)c(Cl)cc1C(=O)N[C@H]1CCN(CCCOc2ccc(F)cc2)C[C@@H]1OC the AC50 [5] was 0.794 µM (active), the AC50 [6] was 1 µM (active) and the AC50 [4] was 25.1 µM (inconclusive).
With CS(=O)(=O)c1ccc(NC(=O)c2ccc3c(c2)S(=O)(=O)N=C2CCCCCN23)cc1 the EC50 [3] was > 195 µM (not active).
In the case of O=C(NCc1ccco1)c1ccccc1-c1ccc(C(F)(F)F)cc1, the EC50 [3] is reported as > 195 µM (not active).
For NC(=O)Cc1ccc2c(c1)[nH]c1ccccc12, the EC50 [7] was > 260 µM (inactive).
In the case of CCCCOCCCN1CC(=O)N2[C@@H](Cc3c([nH]c4ccccc34)C2(C)C)C1=O, the EC50 [7] is reported as > 260 µM (inactive).
For C/C(Cl)=C/Cc1c(C)nc2ccc(C)cc2c1O, the EC50 [7] was > 260 µM (inactive), the EC50 [8] was > 30 µM (not active) and the EC50 [9] was 0.324 µM (active).
In the case of CC(=O)[C@]1(O)CC[C@@H]2[C@H]3C[C@@H](C)C4=CC(=O)CC[C@@]4(C)[C@H]3[C@@H](O)C[C@]21C, the AC50 [6] is reported as 7.94 µM (inconclusive) and the AC50 [10] is reported as 3.98 µM (inconclusive).
With Cc1ccc(N2C(=O)N(CC(=O)NC(N)=O)C(=O)C2C)cc1 (stereo not drawn) the EC50 [3] was > 195 µM (not active).
In the case of O=C(CCn1nc(-c2ccc(Cl)cc2)ccc1=O)N1CCOCC1, the AC50 [6] is reported as 10 µM (inconclusive) and the AC50 [10] is reported as 25.1 µM (inconclusive).
In the case of CC(C)[C@@]1(NC(=O)[C@@H]2C[C@H]3c4cccc5[nH]cc(c45)C[C@@H]3N(C)C2)O[C@]2(O)[C@H]3CCCN3C(=O)CN2C1=O, the AC50 [5] is reported as 5.01 µM (inconclusive) and the AC50 [6] is reported as 6.31 µM (inconclusive).
With CN(C)c1ccc([C@@H]2N([C@H](C#N)c3ccc(N(C)C)cc3)CCCN2[C@@H](C#N)c2ccc(N(C)C)cc2)cc1 the AC50 [4] was 5.01 µM (inconclusive).
With S=C(Nc1cccc(Cl)c1)N(CCCN1CCCC1)Cc1cccn1Cc1ccc(Cl)cc1 the EC50 [7] was > 120 µM (inactive) and the AC50 [11] was 6.16 µM (active).
With Clc1ccsc1-c1ccc2ccccc2n1 the IC50 [1] was 16 µM (active).
For O=C(NCCc1cccc(Cl)c1)c1cc2ccccc2oc1=O, the EC50 [7] was > 260 µM (inactive).
For C=CCn1c(S)nnc1-c1cccc2ccccc12, the EC50 [3] was > 195 µM (not active).
In the case of COC(=O)c1ccc(S(=O)(=O)N2CCCCCC2)cc1, the IC50 [1] is reported as > 100 µM (inactive).
In the case of CC(C)c1ccc(C(=O)CC2(O)C(=O)N(CN3CCOCC3)c3ccccc32)cc1 (stereo not drawn), the AC50 [6] is reported as 12.6 µM (inconclusive).
With COCCNC(=O)Cn1cnc2c1c(=O)n(C)c(=O)n2C the EC50 [7] was > 260 µM (inactive).
With COc1ccc(CNCC(O)COc2ccc(C(C)(C)c3ccccc3)cc2)cc1 (stereo not drawn) the EC50 [7] was > 260 µM (inactive) and the AC50 [11] was 3.38 µM (active).
In the case of COc1cccc(C(=O)c2c[nH]c(C(=O)NCc3ccco3)c2)c1, the EC50 [3] is reported as 19.9 µM (active).
With O=C(Cn1nc(-c2ccccc2)ccc1=O)N1CCCCC1 the EC50 [3] was > 195 µM (not active).
With COc1ccccc1CNC(=O)C(C)NS(=O)(=O)c1ccc(Br)cc1 (stereo not drawn) the EC50 [3] was > 195 µM (not active).
For CC[C@H]1C2=C3C(CC[C@H]4C(OCc5ccc(F)cc5C(F)(F)F)OC[C@](C)([C@@H]34)N(C(=O)OC(C)(C)C)C2)C(COC(C)=O)C1COC(C)=O (stereo partly drawn), the AC50 [5] was 15.8 µM (inconclusive), the AC50 [6] was 31.6 µM (inconclusive) and the AC50 [10] was 2.51 µM (inconclusive).
For CCOC(=O)C[n+]1c(C)csc1C, the EC50 [3] was > 195 µM (not active).
For O=C1c2ccccc2C(O)N1c1ccccc1 (stereo not drawn), the EC50 [3] was > 195 µM (not active).
For COc1ccc(-c2cc(-c3ccccc3)[nH]n2)c(O)c1, the IC50 [1] was > 100 µM (inactive).
In the case of O=C(Cn1cc([N+](=O)[O-])cn1)NCC1CCCO1 (stereo not drawn), the EC50 [3] is reported as > 195 µM (not active).
With Cn1c(=O)c2cn(-c3ccccc3)cc2n(C)c1=O the AC50 [5] was 17.8 µM (inconclusive) and the AC50 [6] was 25.1 µM (inconclusive).
With C[C@@H](CN)CC(=O)O the AC50 [4] was 39.8 µM (inconclusive).
With C=CCNC(=S)Nc1sc2c(c1C#N)CCCC2 the EC50 [3] was > 195 µM (not active).
With CCOC(=O)c1c[nH]nc1C(F)(F)F the EC50 [7] was > 260 µM (inactive).
In the case of O=C(Nc1ccc(-c2cn3ccsc3n2)cc1)C1COc2ccccc2O1 (stereo not drawn), the IC50 [1] is reported as > 100 µM (inactive).
In the case of Cc1oc2ccc(OCc3c(F)cccc3Cl)cc2c1C(=O)O, the EC50 [3] is reported as > 195 µM (not active).
In the case of COC(=O)[C@@H]1[C@@H]2C[C@H]3c4[nH]c5cc(OC)ccc5c4CCN3C[C@@H]2C[C@H](OC(=O)/C=C\c2cc(OC)c(OC)c(OC)c2)[C@H]1OC, the AC50 [4] is reported as 3.16 µM (inconclusive).
In the case of N/C(S)=N/CCC[C@@H](N)C(=O)O, the AC50 [6] is reported as 15.8 µM (inconclusive) and the AC50 [10] is reported as 0.2 µM (inconclusive).
With Cc1ccc(NC(=O)COc2ccc(Br)cc2CO)cc1S(=O)(=O)N1CCOCC1 the IC50 [1] was > 100 µM (inactive).
For COc1ccc(CNC(=O)Oc2ccccc2)cc1Cl, the EC50 [7] was 62.3 µM (active).
For CC(C)(C)NC(=O)COC(=O)c1cncc(Br)c1, the AC50 [4] was 20 µM (inconclusive) and the AC50 [10] was 15.8 µM (inconclusive).
For CC(C)C(=O)NCCc1nc(-c2ccccc2Cl)no1, the IC50 [1] was > 100 µM (inactive).
With CCN(CC)S(=O)(=O)c1cccc(C(=O)N[C@H](C(=O)OCC(=O)NC(=O)NC)C(C)C)c1 the AC50 [6] was 0.708 µM (inconclusive) and the AC50 [10] was 14.1 µM (inconclusive).
With CCOC(=O)CCCN the AC50 [4] was 6.31 µM (inconclusive).
With N[C@@H](Cc1cccnn1)C(=O)O the AC50 [4] was 3.16 µM (inconclusive).
For CC(C)NC(=O)C1(C)CSCC(=O)N1CCCN1CCOCC1 (stereo not drawn), the IC50 [1] was > 100 µM (inactive).
For COc1cc(C(=O)Nc2nccs2)cc(OC)c1OC, the IC50 [1] was > 100 µM (inactive).
For Cc1ccc(/C=N/NC(=O)Cn2nccc2C)o1, the AC50 [5] was 11.2 µM (inconclusive) and the AC50 [4] was 15.8 µM (inconclusive).
With COc1ccc(C2C(C(C)=O)=C(C)N=c3s/c(=C\c4cc(C)n(C)c4C)c(=O)n32)c(OC)c1 (stereo not drawn) the IC50 [1] was > 100 µM (inactive).
With CCCCCCCCCCCCCCCC(=O)C(F)(F)F the AC50 [4] was 31.6 µM (inconclusive).
